This is an account of results in US20260375151A1, “KETOREDUCTASE MUTANT AND USE THEREOF” (SOUTH CHINA UNIVERSITY OF TECHNOLOGY, priority 2023, published 2026).

The target in the test is T1, Novosphingobium aromaticivorans ketoreductase (NaKRED) mutant Y199A/N149L (parent SEQ ID NO. 2) (Novosphingobium aromaticivorans, UniProt A4XEP2, E216K/G141A/I221V/N149L/Y199A).
T1 construct: substrate 1a with NADH
T1 sequence (A4XEP2 1-259 E216K/G141A/I221V/N149L/Y199A): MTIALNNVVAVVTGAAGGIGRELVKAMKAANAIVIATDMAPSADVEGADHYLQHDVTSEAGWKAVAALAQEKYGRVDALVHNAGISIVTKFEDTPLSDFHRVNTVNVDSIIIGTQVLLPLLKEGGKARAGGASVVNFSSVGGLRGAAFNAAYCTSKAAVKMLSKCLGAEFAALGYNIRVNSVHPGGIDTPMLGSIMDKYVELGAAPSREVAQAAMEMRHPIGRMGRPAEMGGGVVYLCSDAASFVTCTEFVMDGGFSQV
The test can be described thus: Enzyme activity assay of purified Y199A/N149L mutant (change in absorbance at 340 nm, NADH). The class given is biochemical. Particulars: role: substrate; 0.5 mM substrate 1a; 1 mM NADH; 0.5 μM purified enzyme; 100 mM PBS pH 7.2. As to the method:
The collected wet cells were resuspended in a reaction buffer in a ratio of 1 g wet cells to 15 mL of reaction buffer. The cells were lysed by ultrasonication in an ice bath using cycles of turn-on for 1 s and turn-off for 2 s for a total duration of 45 min. The lysate was centrifuged at 12,000 rpm and 4 °C for 15 min, and the supernatant was filtered through a 0.22 μm membrane for subsequent purification. The purification was performed by Ni-NTA affinity chromatography using a 5 mL of pre-packed column. The entire purification system was first equilibrated with an equilibration buffer, and the sample was loaded at a flow rate of 1 mL/min. Unbound impurity proteins were further removed with the equilibration buffer, and gradient elution was performed by using an elution buffer (500 mM NaCl, and 500 mM imidazole). A target protein was eluted at approximately 150 mM imidazole. The target protein was collected, and concentrated and desalted by using an ultrafiltration tube (50 kDa cutoff) to a final volume of 1 mL. A protein solution was aliquoted and stored at −80 °C for further use.
Therefore, the activity of the mutant was evaluated by monitoring the change in absorbance at 340 nm during the reaction. […] The change in absorbance was monitored over 5 min. […] A sample was prepared by filtration through a 0.22 μm membrane, and the formation of product was detected by HPLC.

For `CC(C)C(=O)CC[C@@H](C)[C@H]1CCC2C3C(CC[C@@]21C)[C@@]1(C)CC[C@@H](O)C[C@@H]1C[C@H]3O` (stereo partly shown) [1a], the TON came out at 438 ± 2.9.
